“And” between values parts separate entries of the source, which are not always exact repeats. Equal values may be shown once.
How the values were obtained:
[1] = Stability of the analytes in rat plasma QC samples at different storage conditions; assay type: in vitro ADME; settings: for Post-preparation stability (4℃ for 24 h) Measured Conc.: extracted plasma samples in auto sampler rack; for Post-preparation stability (4℃ for 24 h) Measured Conc. / Free-thaw stability (3 free-thaw cycles) Measured Conc. / Long-term stability (-80℃ for 15 d) Measured Conc. / Short-term stability (25℃ for 12 h) Measured Conc.: n=5; for Free-thaw stability, Test Conc., AV / Free-thaw stability, Test Conc. / Post-preparation stability, Test Conc., AV / Post-preparation stability, Test Conc. / Short-term stability, Test Conc., AV / Short-term stability, Test Conc. / Long-term stability, Test Conc., AV / Long-term stability, Test Conc.: plasma; for Free-thaw stability, Test Conc., AV / Free-thaw stability, Test Conc.: 3 free-thaw cycles; for Free-thaw stability, Test Conc., AV / Post-preparation stability, Test Conc., AV / Short-term stability, Test Conc., AV / Long-term stability, Test Conc., AV: AV of 5 replicates; for Free-thaw stability, Test Conc. / Post-preparation stability, Test Conc. / Short-term stability, Test Conc. / Long-term stability, Test Conc.: single replicates NO.1-NO.5, listed as Quercetin-3-O-β-D-glucuronide (QG); for Post-preparation stability, Test Conc., AV / Post-preparation stability, Test Conc.: 4℃ for 24 h; for Short-term stability, Test Conc., AV / Short-term stability, Test Conc.: 25℃ for 12 h; for Long-term stability, Test Conc., AV / Long-term stability, Test Conc.: -80℃ for 15 d; for Free-thaw stability (3 free-thaw cycles) Measured Conc. / Long-term stability (-80℃ for 15 d) Measured Conc. / Short-term stability (25℃ for 12 h) Measured Conc.: rat plasma
Method: The stabilities of Qr, IQ, and QG in plasma were assessed by analyzing QC samples at different storage conditions. The stabilities of three flavonoids in plasma were studied by analyzing three concentration levels of QC samples (n = 5) at room temperature (25 °C) for 12 h, at long-term storage (−80 °C for 15 days), after three freeze (−80 °C) and thaw (room temperature) cycles, and at auto sampler rack storage (4 °C for 24 h).

[2] = design: method as in Yoshino et al., 2011; settings: ref Yoshino et al., 2011; cited from earlier work
lipid peroxidation = tested on: lipid peroxidation; design: method as in Shirai et al., 2001; settings: 10 mM; ref Shirai et al., 2001; cited from earlier work
[3] = high QC, nominal 8400.0 (Qr), 976.0 (IQ), 10000.0 (QG) ng/mL
[4] = low QC, nominal 65.6 (Qr), 48.8 (IQ), 100.0 (QG) ng/mL
[5] = medium QC, nominal 525.0 (Qr), 244.0 (IQ), 1000.0 (QG) ng/mL

Post-preparation stability (4℃ for 24 h) Measured Conc. [1, 3]: 9409.6 ± 569.5 ng/mL
Post-preparation stability (4℃ for 24 h) Measured Conc. [1, 4]: 97.2 ± 6.0 ng/mL
Post-preparation stability (4℃ for 24 h) Measured Conc. [1]: 910.7 ± 68.0 ng/mL
Free-thaw stability, Test Conc., AV ([1]; nominal Conc. 100.00 ng/mL): 98.37 ng/mL
Free-thaw stability, Test Conc., AV ([1]; nominal Conc. 1000.00 ng/mL): 954.92 ng/mL
Free-thaw stability, Test Conc., AV ([1]; nominal Conc. 10000.00 ng/mL): 9353.20 ng/mL
Post-preparation stability, Test Conc., AV ([1]; nominal Conc. 100.00 ng/mL): 97.18 ng/mL
Post-preparation stability, Test Conc., AV ([1]; nominal Conc. 1000.00 ng/mL): 910.72 ng/mL
Post-preparation stability, Test Conc., AV ([1]; nominal Conc. 10000.00 ng/mL): 9409.60 ng/mL
Short-term stability, Test Conc., AV ([1]; nominal Conc. 100.00 ng/mL): 89.29 ng/mL
Short-term stability, Test Conc., AV ([1]; nominal Conc. 1000.00 ng/mL): 943.20 ng/mL
Short-term stability, Test Conc., AV ([1]; nominal Conc. 10000.00 ng/mL): 9334.60 ng/mL
Long-term stability, Test Conc., AV ([1]; nominal Conc. 100.00 ng/mL): 98.57 ng/mL
Long-term stability, Test Conc., AV ([1]; nominal Conc. 1000.00 ng/mL): 941.48 ng/mL
Long-term stability, Test Conc., AV ([1]; nominal Conc. 10000.00 ng/mL): 9985.00 ng/mL
Free-thaw stability (3 free-thaw cycles) Measured Conc. [1, 3]: 9353.2 ± 620.8 ng/mL
Long-term stability (-80℃ for 15 d) Measured Conc. [1, 3]: 9985.0 ± 971.4 ng/mL
Short-term stability (25℃ for 12 h) Measured Conc. [1, 3]: 9334.6 ± 320.2 ng/mL
Free-thaw stability (3 free-thaw cycles) Measured Conc. [1, 4]: 98.4 ± 7.0 ng/mL
Long-term stability (-80℃ for 15 d) Measured Conc. [1, 4]: 98.6 ± 10.2 ng/mL
Short-term stability (25℃ for 12 h) Measured Conc. [1, 4]: 89.3 ± 6.5 ng/mL
Free-thaw stability (3 free-thaw cycles) Measured Conc. [1, 5]: 954.9 ± 93.5 ng/mL
Long-term stability (-80℃ for 15 d) Measured Conc. [1, 5]: 941.5 ± 102.3 ng/mL
Short-term stability (25℃ for 12 h) Measured Conc. [1, 5]: 943.2 ± 64.9 ng/mL
SMILES: O=C(O)[C@H]1O[C@@H](Oc2c(-c3ccc(O)c(O)c3)oc3cc(O)cc(O)c3c2=O)[C@H](O)[C@@H](O)[C@@H]1O [QG, Quercetin-3-O-β-D-glucuronide]
Free-thaw stability, Test Conc. ([1]; nominal Conc. 100.00 ng/mL): 105.25 ng/mL and 86.98 ng/mL and 102.05 ng/mL and 100.21 ng/mL and 97.34 ng/mL
Free-thaw stability, Test Conc. ([1]; nominal Conc. 1000.00 ng/mL): 860.30 ng/mL and 851.00 ng/mL and 988.40 ng/mL and 1022.10 ng/mL and 1052.80 ng/mL
Free-thaw stability, Test Conc. ([1]; nominal Conc. 10000.00 ng/mL): 8753.00 ng/mL and 9439.00 ng/mL and 10058.00 ng/mL and 9832.00 ng/mL and 8684.00 ng/mL
Post-preparation stability, Test Conc. ([1]; nominal Conc. 100.00 ng/mL): 105.22 ng/mL and 101.31 ng/mL and 93.07 ng/mL and 95.83 ng/mL and 90.49 ng/mL
Post-preparation stability, Test Conc. ([1]; nominal Conc. 1000.00 ng/mL): 905.70 ng/mL and 890.50 ng/mL and 1027.40 ng/mL and 853.70 ng/mL and 876.30 ng/mL
Post-preparation stability, Test Conc. ([1]; nominal Conc. 10000.00 ng/mL): 8728.00 ng/mL and 8919.00 ng/mL and 9825.00 ng/mL and 10046.00 ng/mL and 9530.00 ng/mL
Short-term stability, Test Conc. ([1]; nominal Conc. 100.00 ng/mL): 86.17 ng/mL and 83.32 ng/mL and 97.85 ng/mL and 94.48 ng/mL and 84.64 ng/mL
Short-term stability, Test Conc. ([1]; nominal Conc. 1000.00 ng/mL): 905.00 ng/mL and 917.50 ng/mL and 1029.40 ng/mL and 991.30 ng/mL and 872.80 ng/mL
Short-term stability, Test Conc. ([1]; nominal Conc. 10000.00 ng/mL): 9717.00 ng/mL and 8935.00 ng/mL and 9106.00 ng/mL and 9353.00 ng/mL and 9562.00 ng/mL
Long-term stability, Test Conc. ([1]; nominal Conc. 100.00 ng/mL): 87.09 ng/mL and 91.05 ng/mL and 96.73 ng/mL and 107.32 ng/mL and 110.64 ng/mL
Long-term stability, Test Conc. ([1]; nominal Conc. 1000.00 ng/mL): 839.70 ng/mL and 1104.80 ng/mL and 874.40 ng/mL and 932.10 ng/mL and 956.40 ng/mL
Long-term stability, Test Conc. ([1]; nominal Conc. 10000.00 ng/mL): 10543.00 ng/mL and 10195.00 ng/mL and 11086.00 ng/mL and 9530.00 ng/mL and 8571.00 ng/mL
Toxicity compared with its aglycone [2]: much less toxic
Inhibition of lipid peroxidation (lipid peroxidation): can inhibit lipid peroxidation
